Reference: PMC7684686 (2020)

Experiments:
[1] = system: F21T (DNA, G4) GGGTTAGGGTTAGGGTTAGGG; assay: FRET melting; settings: K+ 10 mM (KCl), Na+ 10 mM (cacodylate), Li+ 90 µM [sic]; Na-cacodylate pH 7.2; DNA 0.2 µM, LDR 5 (1 µM ligand); error ± 0.5 °C
[2] = system: a2 (DNA, G4) ACAGGGGTGTGGGGACAGGGGTGTGGGG; assay: photometric titration (Specfit); settings: K+ (25 mM K2HPO4, 70 mM KCl), K-phosphate pH 7.0, DMSO cosolvent (10% in legend, 5% in methods)
[3] = system: 22AG (DNA, G4) AGGGTTAGGGTTAGGGTTAGGG; assay: photometric titration (Specfit); settings: K+ (25 mM K2HPO4, 70 mM KCl), K-phosphate pH 7.0, DMSO cosolvent (10% in legend, 5% in methods)
[4] = system: Fa2T (DNA, G4) ACAGGGGTGTGGGGACAGGGGTGTGGGG; assay: FRET melting; settings: K+ 10 mM (KCl), Na+ 10 mM (cacodylate), Li+ 90 µM [sic]; Na-cacodylate pH 7.2; DNA 0.2 µM, LDR 5 (1 µM ligand); error ± 0.5 °C
[5] = system: FkrasT (DNA, G4) AGGGCGGTGTGGGAAGAGGA; assay: FRET melting; settings: K+ 10 mM (KCl), Na+ 10 mM (cacodylate), Li+ 90 µM [sic]; Na-cacodylate pH 7.2; DNA 0.2 µM, LDR 5 (1 µM ligand); error ± 0.5 °C
[6] = system: FmycT (DNA, G4) TGAGGGTGGGTAGGGTGGGTAA; assay: FRET melting; settings: K+ 10 mM (KCl), Na+ 10 mM (cacodylate), Li+ 90 µM [sic]; Na-cacodylate pH 7.2; DNA 0.2 µM, LDR 5 (1 µM ligand); error ± 0.5 °C
[7] = system: FkitT (DNA, G4) AGGGAGGGCGCTGGGAGGAGGG; assay: FRET melting; settings: K+ 10 mM (KCl), Na+ 10 mM (cacodylate), Li+ 90 µM [sic]; Na-cacodylate pH 7.2; DNA 0.2 µM, LDR 5 (1 µM ligand); error ± 0.5 °C

SMILES	ΔTm [1] [°C]	log Kb [2]	log Kb ([2]; overall 2:1 constant)	log Kb [3]	ΔTm [4] [°C]	log Kb ([3]; overall 2:1 constant)	ΔTm [5] [°C]	ΔTm [6] [°C]	ΔTm [7] [°C]
COc1ccc2cc3[n+](cc2c1OCCn1cc(Cn2cnc4c(N)ncnc42)nn1)CCc1cc2c(cc1-3)OCO2	3.4	5.27 ± 0.08 log (K in M^-1)	10.3 ± 0.1 log (K in M^-2)	5.89 ± 0.07 log (K in M^-1)	−0.5				
COc1ccc2cc3[n+](cc2c1OCCCCn1cc(Cn2cnc4c(N)ncnc42)nn1)CCc1cc2c(cc1-3)OCO2	6.4		10.6 ± 0.3 log (K in M^-2)	5.23 ± 0.09 log (K in M^-1)	−0.1	10.7 ± 0.1 log (K in M^-2)			
COc1ccc2cc3[n+](cc2c1OCCCn1cc(Cn2cnc4c(N)ncnc42)nn1)CCc1cc2c(cc1-3)OCO2	6.2	5.39 ± 0.14 log (K in M^-1)	10.6 ± 0.2 log (K in M^-2)	5.64 ± 0.15 log (K in M^-1)		10.8 ± 0.2 log (K in M^-2)			
COc1ccc2cc3[n+](cc2c1OCCCCCCn1cc(Cn2cnc4c(N)ncnc42)nn1)CCc1cc2c(cc1-3)OCO2	12.9		11.1 ± 0.1 log (K in M^-2)		1.1	10.7 ± 0.1 log (K in M^-2)	10.1	5.0	2.7
COc1ccc2cc3[n+](cc2c1OCCCCCn1cc(Cn2cnc4c(N)ncnc42)nn1)CCc1cc2c(cc1-3)OCO2	9.9		11.1 ± 0.2 log (K in M^-2)	5.09 ± 0.13 log (K in M^-1)	0.0	10.8 ± 0.1 log (K in M^-2)			
